# Reference: PMC10052977, “α,ω-Diacyl-Substituted Analogues of Natural and Unnatural Polyamines: Identification of Potent Bactericides That Selectively Target Bacterial Membranes” (International Journal of Molecular Sciences, 2023)
# Assays:
# human red blood cells = assay: Hemolytic assay; format: cell-based; conditions: mean (n = 2)
# Protocol: Human whole blood was washed three times with 3 volumes of 0.9% NaCl and then resuspended in same to a concentration of 0.5 × 10^8 cells/mL, as determined by manual cell count in a Neubauer hemocytometer. The washed cells were then added to the 384-well compound-containing plates for a final volume of 50 μL. After a 10 min shake on a plate shaker, the plates were then incubated for 1 h at 37 °C. After incubation, the plates were centrifuged at 1000× g for 10 min to pellet cells and debris; 25 μL of the supernatant was then transferred to a polystyrene 384-well assay plate. Hemolysis was determined by measuring the supernatant absorbance at […] (OD405). The absorbance was measured using a Tecan M1000 Pro monochromator plate reader. HC10 and HC50 (concentration at 10% and 50% hemolysis, respectively) were calculated by curve fitting the inhibition values vs. log (concentration) using a sigmoidal dose–response function with variable fitting values for top, bottom and slope.
# [1] = system: Acinetobacter baumannii ATCC19606; assay: MIC, CO-ADD broth microdilution; format: cell-based; conditions: mean (n = 2)
# [2] = system: Staphylococcus aureus ATCC 25923 or ATCC 29213; assay: MIC, broth dilution (CA-SFM); format: cell-based; conditions: Staphylococcus aureus ATCC 25923 or ATCC 29213; mean (n = 3); read-out: MIC S. a
# MRSA ATCC 43300 = assay: MIC, CO-ADD broth microdilution; format: cell-based, Staphylococcus aureus; conditions: for MIC: Staphylococcus aureus, MRSA ATCC 43300, mean (n = 2), read-out: MIC MRSA
# [3] = Cytotoxicity assay (resazurin); format: cell-based, human; conditions: human; HEK293 cells; mean (n = 2); highest dose tested 32 μg/mL; read-out: Cytotoxicity (concentration of compound at 50% cytotoxicity, IC50)
# [4] = system: Pseudomonas aeruginosa PAO1 or ATCC 27853; assay: MIC, broth dilution (CA-SFM); format: cell-based; conditions: mean (n = 3)
# [5] = system: Candida albicans ATCC90028; assay: Antifungal MIC, CO-ADD; format: cell-based; conditions: mean (n = 2)
# Protocol: (§1) For the antifungal assay, fungi strains were cultured for 3 days on YPD agar at 30 °C. A yeast suspension of 1 × 10^6 to 5 × 10^6 CFU/mL was prepared from five colonies. These stock suspensions were diluted with yeast nitrogen base (YNB) (Becton Dickinson, 233520) broth to a final concentration of 2.5 × 10^3 CFU/mL. […] Plates were covered and incubated at 35 °C for 36 h without shaking. C. albicans MICs were determined by measuring the absorbance at OD530. […] Fluconazole was used as a positive fungal inhibitor standard for C. albicans and C. neoformans. […] Quality control (QC) of the assays was determined by antimicrobial controls and Z’-factor (using positive and negative controls).
# [6] = system: Cryptococcus neoformans ATCC208821; assay: Antifungal MIC, CO-ADD; format: cell-based
# Protocol: as §1
# [7] = system: Escherichia coli ATCC 25922; assay: MIC, CO-ADD broth microdilution; format: cell-based; conditions: ATCC25922, mean (n = 2)
# [8] = system: Klebsiella pneumoniae ATCC700603; assay: MIC, CO-ADD broth microdilution; format: cell-based; conditions: mean (n = 2)
# [9] = ATCC208821, Cryptococcus neoformans ATCC208821, mean (n = 2)
MIC [1] [µM],MIC [2] [µM],MIC (MRSA ATCC 43300) [µM],MIC [4] [µM],MIC [5] [µM],"MIC [6, 9] [µM]",MIC [7] [µM],MIC [8] [µM],MIC ([5]; 36 h) [µM],"MIC ([6]; ATCC208821, 36 h, Cryptococcus neoformans ATCC208821, mean (n = 2)) [µM]",Compound,"Hemolysis (HC10, concentration at 10% hemolytic activity) (human red blood cells) [µM]",IC50 at 20 h [3] [µM],activity towards MRSA (MRSA ATCC 43300)
3.95,12.5,< 0.25,300,15.8,15.8,7.9,31.6,,,"O=C(NCCCNCCCCCCCNCCCNC(=O)C(c1ccccc1)(c1ccccc1)c1ccccc1)C(c1ccccc1)(c1ccccc1)c1ccccc1.O=C(O)C(F)(F)F.O=C(O)C(F)(F)F [Compound 17c, N^1,N^7-Bis(3-(2,2,2-triphenylacetamido)propyl)heptane-1,7-diaminium 2,2,2-trifluoroacetate]",8.16,≤ 0.247,
4,3.12,< 0.25,25,8,32,0.5,32,,,"O=C(CC(c1ccccc1)(c1ccccc1)c1ccccc1)NCCCNCCCCNCCCNC(=O)CC(c1ccccc1)(c1ccccc1)c1ccccc1.O=C(O)C(F)(F)F.O=C(O)C(F)(F)F [Compound 18a, N^1,N^4-Bis(3-(3,3,3-triphenylpropanamido)propyl)butane-1,4-diaminium 2,2,2-trifluoroacetate]",1.58,18.3,
2.15,3.13,≤ 0.27,200,> 34.4,> 34.4,≤ 0.27,> 34.4,,,"O=C(CC(c1ccccc1)c1ccccc1)NCCCNCCCCCCCCCCNCCCNC(=O)CC(c1ccccc1)c1ccccc1.O=C(O)C(F)(F)F.O=C(O)C(F)(F)F [Compound 15e, N^1,N^10-Bis(3-(3,3-diphenylpropanamido)propyl)decane-1,10-diaminium 2,2,2-trifluoroacetate]",>34.4,> 34.4,
> 29.8,12.5,≤ 0.23,300,> 29.8,> 29.8,> 29.8,> 29.8,,,"O=C(CCC(=O)NCCC(c1ccccc1)c1ccccc1)NCCCNCCCCCCCCNCCCNC(=O)CCC(=O)NCCC(c1ccccc1)c1ccccc1.O=C(O)C(F)(F)F.O=C(O)C(F)(F)F [Compound 16d, N^1,N^8-Bis(3-(4-((3,3-diphenylpropyl)amino)-4-oxobutanamido)propyl)octane-1,8-diaminium 2,2,2-trifluoroacetate]",>29.8,> 29.8,
> 30.3,3.12,< 0.23,300,> 30.3,< 0.23,< 0.23,> 30.3,,,"O=C(NCCCNCCCCCCCCCCNCCCNC(=O)C(c1ccccc1)(c1ccccc1)c1ccccc1)C(c1ccccc1)(c1ccccc1)c1ccccc1.O=C(O)C(F)(F)F.O=C(O)C(F)(F)F [Compound 17e, N^1,N^10-Bis(3-(2,2,2-triphenylacetamido)propyl)decane-1,10-diaminium 2,2,2-trifluoroacetate]",≤0.234,> 30.3,
1,1.56,≤ 0.26,200,8.34,≤ 0.28,2.1,> 33.4,,,"O=C(CC(c1ccccc1)c1ccccc1)NCCCNCCCCCCCCCCCCNCCCNC(=O)CC(c1ccccc1)c1ccccc1.O=C(O)C(F)(F)F.O=C(O)C(F)(F)F [Compound 15f, N^1,N^12-Bis(3-(3,3-diphenylpropanamido)propyl)dodecane-1,12-diaminium 2,2,2-trifluoroacetate]",1.17,5.46,
8.24,6.25,< 0.26,300,> 33,< 0.26,1.03,> 33,,,"O=C(NCCCNCCCCNCCCNC(=O)C(c1ccccc1)(c1ccccc1)c1ccccc1)C(c1ccccc1)(c1ccccc1)c1ccccc1.O=C(O)C(F)(F)F.O=C(O)C(F)(F)F [Compound 17a, N^1,N^4-Bis(3-(2,2,2-triphenylacetamido)propyl)butane-1,4-diaminium 2,2,2-trifluoroacetate]",5.57,0.329,
> 41.1,32,10.3,642,> 41.1,41.1,41.1,> 41.1,,,"O=C(CCc1ccccc1)NCCCNCCCCCCCCCCNCCCNC(=O)CCc1ccccc1.O=C(O)C(F)(F)F.O=C(O)C(F)(F)F [Compound 13e, N^1,N^10-Bis(3-(3-phenylpropanamido)propyl)decane-1,10-diaminium 2,2,2-trifluoroacetate]",>41.1,> 41.1,weak
> 28.8,25,< 0.22,300,,,> 28.8,> 28.8,< 0.23,< 0.23,"O=C(CC(c1ccccc1)(c1ccccc1)c1ccccc1)NCCCNCCCCCCCCCCCCNCCCNC(=O)CC(c1ccccc1)(c1ccccc1)c1ccccc1.O=C(O)C(F)(F)F.O=C(O)C(F)(F)F [Compound 18f, N^1,N^12-Bis(3-(3,3,3-triphenylpropanamido)propyl)dodecane-1,12-diaminium 2,2,2-trifluoroacetate]",≤0.225,0.409,
> 36.6,12.5,≤ 0.29,100,> 36.6,> 36.6,4.6,> 36.6,,,"O=C(CC(c1ccccc1)c1ccccc1)NCCCNCCCCCCNCCCNC(=O)CC(c1ccccc1)c1ccccc1.O=C(O)C(F)(F)F.O=C(O)C(F)(F)F [Compound 15b, N^1,N^6-Bis(3-(3,3-diphenylpropanamido)propyl)hexane-1,6-diaminium 2,2,2-trifluoroacetate]",>36.6,> 36.6,
> 28.3,3.13,≤ 0.22,300,> 28.3,> 28.3,> 28.3,> 28.3,,,"O=C(CCC(=O)NCCC(c1ccccc1)c1ccccc1)NCCCNCCCCCCCCCCCCNCCCNC(=O)CCC(=O)NCCC(c1ccccc1)c1ccccc1 [Compound 16f, N^1,N^12-Bis(3-(4-((3,3-diphenylpropyl)amino)-4-oxobutanamido)propyl)dodecane-1,12-diaminium 2,2,2-trifluroracetate]",3.17,> 28.3,
29.1,12.5,≤ 0.23,200,29.1,≤ 0.28,14.5,29.1,,,"O=C(CCC(=O)NCCC(c1ccccc1)c1ccccc1)NCCCNCCCCCCCCCCNCCCNC(=O)CCC(=O)NCCC(c1ccccc1)c1ccccc1.O=C(O)C(F)(F)F.O=C(O)C(F)(F)F [Compound 16e, N^1,N^10-Bis(3-(4-((3,3-diphenylpropyl)amino)-4-oxobutanamido)propyl)decane-1,10-diaminium 2,2,2-trifluoroacetate]",17.9,17.3,
> 33.7,100,4.21,> 200,> 33.7,33.7,33.7,> 33.7,,,"O=C(CCC(=O)NCCCc1ccccc1)NCCCNCCCCCCCCCCNCCCNC(=O)CCC(=O)NCCCc1ccccc1.O=C(O)C(F)(F)F.O=C(O)C(F)(F)F [Compound 14e, N^1,N^10-Bis(3-(4-oxo-4-((3-phenylpropyl)amino)butanamido)propyl)decane-1,10-diaminium 2,2,2-trifluoroacetate]",>33.7,> 33.7,weak
